Results taken from patent US20250186408A1, “TREATMENT OF PHARMACORESISTANT EPILEPSY” (Katholieke Universiteit Leuven, priority 2021, published 2025).
Where two headings read alike, the source gives them in different places.

Legend:
ADORA2A = ADORA2A (Homo sapiens, UniProt P29274); assay: Calcium Flux ADORA2A Antagonist; type: cell-based; conditions: for Emax: read-out: Max response; for IC50: read-out: RC50, result type IC50
Method: (§1) (≤0.2% DMSO concentration). Assays were performed in 1× dye loading buffer consisting of 1× Dye (DiscoverX, Calcium No Wash^PLUS kit, Catalog No. 90-0091), 1× Additive A and 2.5 mM Probenecid in HBSS/20 mM HEPES. Probenecid was prepared fresh. Prior to testing, media was aspirated from cells and replaced with 25 μL dye loading buffer. Cells were incubated for 45 min at 37° C. and then 20 min at RT. For agonist determination, 25 μL of 2× compound in HBSS/20 mM HEPES was added using a FLIPR Tetra (MDS). […] 25 μL of 2× sample was added and cells were incubated for 30 min at RT in the dark to equilibrate plate temperature. After incubation, antagonist determination was initiated by addition of 25 μL of 1× compound with 3×EC80 agonist using FLIPR. For both agonist and antagonist formats, activity was measure on a FLIPR Tetra (MDS). Calcium mobilization was monitored for 2 min with a 5 sec baseline read.
(§2) FLIPR read—Area under the curve, was calculated for the entire 2 min read.

HRH1 = HRH1 (Homo sapiens, UniProt P35367); assay: Calcium Flux HRH1 Antagonist; type: cell-based; conditions: for Emax: read-out: Max response
Method: as §1, §2

VEGFR2 = molecular target: T1, VEGFR2 (Homo sapiens, UniProt P35968); assay: Binding (KINOMEscan) VEGFR2 Inhibitor; conditions: for Emax: read-out: Max response; for IC50: read-out: RC50, result type IC50
T1 construct: purchased Eurofins DiscoverX Corporation 87-1003DR; host or cells: E. coli BL21-derived host (T7 phage) or HEK-293
Method: For most assays, kinase-tagged T7 phage strains were grown in parallel in 24-well blocks in an E. coli host derived from the BL21 strain. E. coli were grown to log-phase and infected with T7 phage from a frozen stock (multiplicity of infection=0.4) and incubated with shaking at 32° C. until lysis (90-150 min). The lysates were centrifuged (6,000×g) and filtered (0.2 μm) to remove cell debris. The remaining kinases were produced in HEK-293 cells and subsequently tagged with DNA for qPCR detection. Streptavidin-coated magnetic beads were treated with biotinylated small molecule ligands for 30 min at RT to generate affinity resins for kinase assays. The liganded beads were blocked with excess biotin and washed with blocking buffer (SeaBlock (Pierce), 1% BSA, 0.05% Tween 20, 1 mM DTT) to remove unbound ligand and to reduce non-specific phage binding. […] All reactions were performed in polypropylene 384-well plates in a final volume of 0.02 mL. […] The beads were then re-suspended in elution buffer (1×PBS, 0.05% Tween 20, 0.5 μM non-biotinylated affinity ligand) and incubated at RT with shaking for 30 min. The kinase concentration in the eluates was measured by qPCR.
The kinase concentration in the eluates was measured by qPCR. qPCR reactions were assembled by adding 2.5 μL of kinase eluate to 7.5 μL of qPCR master mix containing 0.15 μM amplicon primers and 0.15 μM amplicon probe. The qPCR protocol consisted of a 10 min hot start at 95° C., followed by 35 cycles of 95° C. for 15 sec, 60° C. for 1 min.
Binding constants (Kds) were calculated with a standard dose-response curve using the Hill equation: […]

[1] = Intrinsic clearance (liver microsomes); type: in vitro ADME; conditions: pooled liver microsomes, pH 7.4, human liver microsomes
Excerpt: In vitro ADME profiling of compounds was done by Eurofins Panlabs Inc (St Charles, MO, USA) using their ADME-Tox service (Cat Ref P375, Tier 1 ADME Panel). […] (28). The atom-based log P calculation method, called OsirisP, uses as an increment system and adds contributions of every atom based on its atom type. The prediction engine distinguishes a total of 368 atom types and was optimized using a training set of more than 5000 molecules with experimentally determined log P values. The free prediction engine has proven to outperform many alternative calculation methods (29).
Metabolic stability of the test compounds was evaluated in pooled liver microsomes from human species. Test compounds were pre-incubated with liver microsomes in phosphate buffer (pH 7.4) in a 37° C. shaking water bath for 5 min and an NADPH-generating system was added to initiate the reaction. Samples were collected at time points of 0, 15, 30, 45 and 60 min and extracted with acetonitrile/methanol. After centrifugation, the supernatants were analysed by HPLC-MS/MS. T1/2 was calculated from the slope of the line obtained by plotting the natural logarithmic percentage (Ln %) of the test compound remaining in the reaction mixture vs. incubation time (min). CLint (μL/min/mg protein) was calculated from T1/2 using following equation: […]

OPRM1 = OPRM1 (Homo sapiens, UniProt P35372); assay: cAMP OPRM1 Agonist; conditions: for Emax: OPRM1, read-out: Max response
Method: In vitro pharmacological profiling of compounds was done against 78 functional assays for 47 common off-targets (30) by Eurofins DiscoverX Corporation (Fremont, CA, USA) using their SAFETYscan E/IC50 ELECT service (Cat Ref 87-1003DR, Safety47 Panel Dose Response). […] Compounds were tested in a range of 10 concentrations, following a 3-fold serial dilution, starting from 10 μM.
cAMP Hunter cell lines were expanded from freezer stocks. Prior to testing, cells were seeded in a total volume of 20 μL into white walled 384-well microplates and incubated at 37° C. cAMP modulation was determined using the DiscoverX HitHunter cAMP XS+ assay. For Gs agonist determination, cells were incubated with sample to induce response. For Gi agonist determination, cells were incubated with sample in the presence of EC80 forskolin to induce response. For both conditions, media was aspirated from cells and replaced with 15 μL 2:1 HBSS/10 mM HEPES:cAMP XS+ Ab reagent. Intermediate dilution of sample stocks was performed to generate 4× sample in assay buffer (containing 4×EC80 forskolin in the case of antagonist determination). 5 μL of 4× sample was added to cells and incubated at 37° C. or room temperature (RT) for 30 or 60 min. Final assay vehicle concentration was 1%. For antagonist determination, cells were pre-incubated with sample followed by agonist challenge at the EC80 concentration. Media was aspirated from cells and replaced with 10 μL 1:1 HBSS/HEPES:cAMP XS+ Ab reagent. 5 μL of 4× compound was added to the cells and incubated at 37° C. or RT for 30 min. 5 μL of 4×EC80 agonist was added to the cells and incubated at 37° C. or RT for 30 or 60 min. For Gi coupled GPCRs, EC80 forskolin was included. […] Microplates were read following signal generation with a PerkinElmer Envision™ instrument for chemiluminescent signal detection. Compound activity was analyzed using CBIS data analysis suite (ChemInnovation, CA). For Gs agonist mode assays, percentage activity was calculated using the following equation:

[2] = Calcium Flux ADORA2A Antagonist

T1 sequence (P35968 20-1356): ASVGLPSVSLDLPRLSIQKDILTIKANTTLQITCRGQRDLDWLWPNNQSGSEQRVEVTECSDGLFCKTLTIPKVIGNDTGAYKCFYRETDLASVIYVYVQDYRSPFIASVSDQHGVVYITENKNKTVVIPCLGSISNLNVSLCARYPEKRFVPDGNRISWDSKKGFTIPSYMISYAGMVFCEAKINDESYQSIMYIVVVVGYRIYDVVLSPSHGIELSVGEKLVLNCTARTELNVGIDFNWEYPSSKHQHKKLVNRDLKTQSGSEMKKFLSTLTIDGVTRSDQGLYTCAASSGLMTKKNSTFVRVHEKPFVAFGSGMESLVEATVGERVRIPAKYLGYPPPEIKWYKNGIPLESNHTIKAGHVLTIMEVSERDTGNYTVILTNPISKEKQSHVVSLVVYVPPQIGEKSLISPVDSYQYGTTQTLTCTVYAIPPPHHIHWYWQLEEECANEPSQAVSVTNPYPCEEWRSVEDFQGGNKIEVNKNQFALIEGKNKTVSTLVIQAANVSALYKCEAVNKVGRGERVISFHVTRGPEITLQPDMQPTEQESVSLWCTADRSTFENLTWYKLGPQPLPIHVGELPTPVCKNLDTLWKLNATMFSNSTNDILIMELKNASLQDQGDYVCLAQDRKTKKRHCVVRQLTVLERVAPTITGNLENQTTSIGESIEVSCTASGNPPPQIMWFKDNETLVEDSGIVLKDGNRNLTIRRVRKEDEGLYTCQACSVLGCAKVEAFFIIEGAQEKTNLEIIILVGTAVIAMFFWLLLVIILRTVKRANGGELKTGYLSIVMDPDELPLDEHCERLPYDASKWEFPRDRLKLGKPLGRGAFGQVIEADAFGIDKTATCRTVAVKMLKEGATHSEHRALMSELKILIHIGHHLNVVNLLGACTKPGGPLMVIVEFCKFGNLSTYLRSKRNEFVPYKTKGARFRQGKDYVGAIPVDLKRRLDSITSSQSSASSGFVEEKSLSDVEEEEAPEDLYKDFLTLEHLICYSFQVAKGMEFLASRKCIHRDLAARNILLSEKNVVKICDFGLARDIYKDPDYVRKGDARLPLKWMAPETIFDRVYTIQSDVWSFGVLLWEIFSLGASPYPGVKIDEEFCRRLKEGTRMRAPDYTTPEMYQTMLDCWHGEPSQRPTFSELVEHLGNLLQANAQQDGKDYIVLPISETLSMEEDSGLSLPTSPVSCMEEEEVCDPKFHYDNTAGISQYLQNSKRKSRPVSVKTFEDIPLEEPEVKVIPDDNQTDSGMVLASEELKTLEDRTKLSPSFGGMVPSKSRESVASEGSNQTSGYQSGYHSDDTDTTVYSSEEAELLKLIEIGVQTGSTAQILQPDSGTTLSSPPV
Sequence of HRH1 (P35367 whole entry): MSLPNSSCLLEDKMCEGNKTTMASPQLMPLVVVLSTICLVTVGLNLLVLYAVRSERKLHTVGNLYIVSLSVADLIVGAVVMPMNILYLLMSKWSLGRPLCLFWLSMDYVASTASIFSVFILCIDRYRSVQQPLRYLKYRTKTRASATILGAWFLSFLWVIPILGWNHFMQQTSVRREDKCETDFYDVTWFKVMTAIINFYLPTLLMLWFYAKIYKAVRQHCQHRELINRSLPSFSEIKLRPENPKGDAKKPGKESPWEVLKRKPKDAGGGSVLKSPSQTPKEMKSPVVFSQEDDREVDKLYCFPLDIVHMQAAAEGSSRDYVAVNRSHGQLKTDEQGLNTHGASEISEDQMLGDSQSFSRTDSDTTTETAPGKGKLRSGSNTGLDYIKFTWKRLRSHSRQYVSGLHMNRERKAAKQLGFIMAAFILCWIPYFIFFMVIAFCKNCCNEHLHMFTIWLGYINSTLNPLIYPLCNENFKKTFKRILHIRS
Sequence of OPRM1 (P35372 whole entry): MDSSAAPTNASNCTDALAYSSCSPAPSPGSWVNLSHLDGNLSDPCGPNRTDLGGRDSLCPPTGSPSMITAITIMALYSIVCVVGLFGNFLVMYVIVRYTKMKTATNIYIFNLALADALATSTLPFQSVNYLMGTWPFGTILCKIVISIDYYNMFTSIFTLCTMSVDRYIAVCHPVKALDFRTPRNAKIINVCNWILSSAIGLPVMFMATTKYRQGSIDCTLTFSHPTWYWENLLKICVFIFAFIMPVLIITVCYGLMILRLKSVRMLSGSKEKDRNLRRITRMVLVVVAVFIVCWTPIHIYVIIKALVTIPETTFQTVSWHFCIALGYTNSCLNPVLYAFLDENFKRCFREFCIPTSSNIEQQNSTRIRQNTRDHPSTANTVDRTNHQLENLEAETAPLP
Sequence of ADORA2A (P29274 whole entry): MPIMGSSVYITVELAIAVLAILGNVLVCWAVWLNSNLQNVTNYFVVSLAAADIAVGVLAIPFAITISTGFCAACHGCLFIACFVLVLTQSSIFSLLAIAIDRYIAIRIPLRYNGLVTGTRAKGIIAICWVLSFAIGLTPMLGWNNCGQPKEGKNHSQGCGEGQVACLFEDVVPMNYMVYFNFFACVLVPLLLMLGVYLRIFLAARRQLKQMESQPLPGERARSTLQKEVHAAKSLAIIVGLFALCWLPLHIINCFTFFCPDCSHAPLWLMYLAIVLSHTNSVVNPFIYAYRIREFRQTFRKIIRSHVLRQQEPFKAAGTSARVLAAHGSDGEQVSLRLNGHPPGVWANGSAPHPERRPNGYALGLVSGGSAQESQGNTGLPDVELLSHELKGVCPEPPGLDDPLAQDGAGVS

| SMILES | Emax (ADORA2A; [2]) | IC50 (ADORA2A; [2]) | Emax (HRH1; Calcium Flux HRH1 Antagonist) | IC50 (HRH1; Calcium Flux HRH1 Antagonist, read-out: RC50, result type IC50) | Emax (VEGFR2; Binding VEGFR2 Inhibitor) | IC50 (VEGFR2; Binding VEGFR2 Inhibitor) | half-life at 100 nM [1] | microsomal CLint at 100 nM [1] | EC50 (OPRM1) | Emax (OPRM1) | Emax (ADORA2A) | IC50 (HRH1) | Emax (HRH1) | Emax (VEGFR2) |
| --- | --- | --- | --- | --- | --- | --- | --- | --- | --- | --- | --- | --- | --- | --- |
| Clc1cccc(C#Cc2n[nH]c3ncccc23)c1 [Compound 10.1, 3-((3-chlorophenyl)ethynyl)-1H-pyrazolo[3,4-b]pyridine] | 0% | > 10 µM | 1% | > 10 µM | 5.4% | > 10 µM | 10 min | 748 µL/min/mg | > 10 µM | 9.9% | – | – | – | – |
| CC(C)(C)c1ccc(C#CC(O)c2ccccc2)cc1 (racemic) [Compound 3.3, rac-3-(4-(tert-butyl)phenyl)-1-phenylprop-2-yn-1-ol] | – | > 10 µM | – | – | – | > 10 µM | 19 min | 381 µL/min/mg | > 10 µM | 0% | 0% | > 10 µM | 0% | 0% |
